Where two headings read alike, the source gives them in different places.
Target: T1, human APJ receptor (Homo sapiens, UniProt P35414)
T1 construct: expressed in transfected cells
T1 sequence (P35414 1-380): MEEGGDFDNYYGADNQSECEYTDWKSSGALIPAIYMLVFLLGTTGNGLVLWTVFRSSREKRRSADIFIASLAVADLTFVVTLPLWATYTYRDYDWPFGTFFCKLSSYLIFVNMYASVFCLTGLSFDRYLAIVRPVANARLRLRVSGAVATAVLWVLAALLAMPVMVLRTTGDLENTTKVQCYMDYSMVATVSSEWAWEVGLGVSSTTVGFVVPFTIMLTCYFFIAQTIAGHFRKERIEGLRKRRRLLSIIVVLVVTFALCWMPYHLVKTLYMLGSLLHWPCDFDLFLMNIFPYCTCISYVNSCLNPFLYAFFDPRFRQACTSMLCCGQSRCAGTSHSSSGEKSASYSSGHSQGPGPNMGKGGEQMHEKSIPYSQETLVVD
Experiment: Intracellular cAMP accumulation assay (APJ hcAMP, HTRF)
Type: cell-based
Details: HEK293 cells stably expressing human APJ receptor
Summary of the method: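 HEK293 cells stably expressing human APJ, 5,000/well, incubated 30 min at room temperature with compound plus […] and 2 μM forskolin. cAMP read by HTRF against a cAMP standard curve; EC50 from variable-slope sigmoidal fit, Ymax as % of (Pyr1)apelin-13 inhibition.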

[1] = Table 1, inhibition of forskolin-mediated cAMP production, read-out: APJ hcAMP EC50
[2] = Table 3, read-out: APJ cAMP Human EC50

EC50 [1]	EC50 [2]	SMILES
0.01 to 0.1 µM	0.01 to 0.1 µM	COc1cc2[nH]c(-c3cccc(Cl)c3-c3ccc(C(=O)NCc4ccccc4)cc3C(=O)O)nc2cc1F [Example 119, (S)-4-(benzylcarbamoyl)-2′-chloro-6′-(5-fluoro-6-methoxy-1H-1,3-benzodiazol-2-yl)-[1,1′-biphenyl]-2-carboxylic acid]
0.01 to 0.1 µM	0.01 to 0.1 µM	COc1cc2[nH]c(-c3cccc(Cl)c3-c3ccc(C(=O)NCc4ccc(Cl)cc4)cc3C(=O)O)nc2cc1F [Example 120, (S)-2′-chloro-4-{[(4-chlorophenyl)methyl]carbamoyl}-6′-(5-fluoro-6-methoxy-1H-1,3-benzodiazol-2-yl)-[1,1′-biphenyl]-2-carboxylic acid]
0.01 to 0.1 µM	0.01 to 0.1 µM	COc1cc2[nH]c(-c3cccc(Cl)c3-c3ccc(C(=O)NCC(C)C)cc3C(=O)O)nc2cc1F [Example 121, (S)-2′-chloro-6′-(5-fluoro-6-methoxy-1H-1,3-benzodiazol-2-yl)-4-[(2-methylpropyl)carbamoyl [1,1′-biphenyl]-2-carboxylic acid]
0.01 to 0.1 µM	0.01 to 0.1 µM	COc1cc2[nH]c(-c3cccc(Cl)c3-c3ccc(C(=O)NCCCN(C)C)cc3C(=O)O)nc2cc1F [Example 122, (S)-2′-chloro-4-{[3-(dimethylamino)propyl]carbamoyl}-6′-(5-fluoro-6-methoxy-1H-1,3-benzodiazol-2-yl)-[1,1′-biphenyl]-2-carboxylic acid]
0.01 to 0.1 µM	0.01 to 0.1 µM	COc1cc2[nH]c(-c3cccc(Cl)c3-c3ccc(C(=O)N4CCC(O)CC4)cc3C(=O)O)nc2cc1F [Example 123, (S)-2′-chloro-6′-(5-fluoro-6-methoxy-1H-1,3-benzodiazol-2-yl)-4-(4-hydroxypiperidine-1-carbonyl)-[1,1′-biphenyl]-2-carboxylic acid]
0.01 to 0.1 µM	0.01 to 0.1 µM	COc1cc2[nH]c(-c3cccc(Cl)c3-c3ccc(C(=O)N4CCCC4)cc3C(=O)O)nc2cc1F [Example 124, (S)-2′-chloro-6′-(5-fluoro-6-methoxy-2-yl)-4-(pyrrolidine-1-carbonyl)-[1,1′-biphenyl]-2-carboxylic acid]
0.01 to 0.1 µM	0.01 to 0.1 µM	COc1ccc(NC(=O)c2ccc(-c3c(Cl)cccc3-c3nc4cc(F)c(OC)cc4[nH]3)c(C(=O)O)c2)cc1 [Example 125, (S)-2′-chloro-6′-(5-fluoro-6-methoxy-1H-1,3-benzodiazol-2-yl)-4-[(4-methoxyphenyl)carbamoyl]-[1,1′-biphenyl]-2-carboxylic acid]
	0.101 to 0.5 µM	COc1cc2[nH]c(-c3cccc(Cl)c3-c3ccc(C(=O)N4CCC(Cc5ccccc5)CC4)cc3C(=O)O)nc2cc1F [Example 126, (S)-4-(4-benzylpiperidine-1-carbonyl)-2′-chloro-6′-(5-fluoro-6-methoxy-1H-1,3-benzodiazol-2-yl)-[1,1′-biphenyl]-2-carboxylic acid]
	< 0.01 µM	CCC[C@@H](NC(=O)c1ccc(-c2c(Cl)cccc2-c2nc3cc(OC)c(F)cc3[nH]2)c(C(=O)NOC)c1)c1ccccc1 [Example 127, 2′-chloro-6′-(6-fluoro-5-methoxy-1H-1,3-benzodiazol-2-yl)-N2-methoxy-N4-[(1R)-1-phenylbutyl]-[1,1′-biphenyl]-2,4-dicarboxamide]
	0.01 to 0.1 µM	CCC[C@@H](NC(=O)c1ccc(-c2c(Cl)cccc2-c2nc3ccccc3[nH]2)c(-c2n[nH]c(=O)o2)c1)c1ccccc1 [Example 129, 2′-(1H-1,3-benzodiazol-2-yl)-6′-chloro-2-(5-oxo-4,5-dihydro-1,3,4-oxadiazol-2-yl)-N-[(1R)-1-phenylbutyl]-[1,1′-biphenyl]-4-carboxamide]
	< 0.01 µM	CCC[C@@H](NC(=O)c1ccc(-c2c(Cl)cccc2-c2nc3cc(OC)c(F)cc3[nH]2)c(-c2n[nH]c(=O)o2)c1)c1ccccc1 [Example 130, 2′-chloro-6′-(6-fluoro-5-methoxy-1H-1,3-benzodiazol-2-yl)-2-(5-oxo-4,5-dihydro-1,3,4-oxadiazol-2-yl)-N-[(1R)-1-phenylbutyl]-[1,1′-biphenyl]-4-carboxamide]
0.01 to 0.1 µM	0.01 to 0.1 µM	CCC[C@@H](NC(=O)c1ccc(-c2c(C)cccc2-c2nc3ccccc3n2C)c(C(=O)O)c1)c1ccccc1 [Example 137, 2′-methyl-6′-(1-methyl-1H-1,3-benzodiazol-2-yl)-4-{[(1R)-1-phenylbutyl]carbamoyl}-[1,1′-biphenyl]-2-carboxylic acid]

The next lines start with the compound.

SMILES	EC50 [1]	EC50 [2]
CCCC(NC(=O)c1ccc(-c2c(Cl)cccc2-c2nc3cc(OC)c(OC)cc3[nH]2)c(C(=O)O)c1)c1ccccc1 [Example 93, (S)-2′-chloro-6′-(5,6-dimethoxy-1H-1,3-benzodiazol-2-yl)-4-{[(1R)-1-phenylbutyl]carbamoyl}-[1,1′-biphenyl]-2-carboxylic acid]	< 0.01 µM	< 0.01 µM
CCCC(NC(=O)c1ccc(-c2c(Cl)cccc2-c2ncc(-c3c(F)ccc(F)c3F)[nH]2)c(C(=O)O)c1)c1ccccc1 [Example 100, (S)-2′-chloro-4-{[(1R)-1-phenylbutyl]carbamoyl}-6′-[5-(2,3,6-trifluorophenyl)-1H-imidazol-2-yl]-[1,1′-biphenyl]-2-carboxylic acid]		< 0.01 µM
CCCC(NC(=O)c1ccc(-c2c(Cl)cccc2-c2ncc(-c3cccnc3)[nH]2)c(C(=O)O)c1)c1ccccc1 [Example 101, (S)-2′-chloro-4-{[(1R)-1-phenylbutyl]carbamoyl}-6′-[5-(pyridin-3-yl)-1H-imidazol-2-yl]-[1,1′-biphenyl]-2-carboxylic acid]		< 0.01 µM
COc1cc2[nH]c(-c3cccc(Cl)c3-c3ccc(C(=O)NC(C)C)cc3C(=O)O)nc2cc1F [Example 109, (S)-2′-chloro-6′-(5-fluoro-6-methoxy-1H-1,3-benzodiazol-2-yl)-4-[(propan-2-yl)carbamoyl]-[1,1′-biphenyl]-2-carboxylic acid]	0.01 to 0.1 µM	0.01 to 0.1 µM
COc1cc2[nH]c(-c3cccc(Cl)c3-c3ccc(C(=O)N4CCC(c5ccccc5)CC4)cc3C(=O)O)nc2cc1F [Example 110, (S)-2′-chloro-6′-(5-fluoro-6-methoxy-1H-1,3-benzodiazol-2-yl)-4-(4-phenylpiperidine-1-carbonyl)-[1,1′-biphenyl]-2-carboxylic acid]	< 0.01 µM	< 0.01 µM
COCCNC(=O)c1ccc(-c2c(Cl)cccc2-c2nc3cc(F)c(OC)cc3[nH]2)c(C(=O)O)c1 [Example 111, (S)-2′-chloro-6′-(5-fluoro-6-methoxy-1H-1,3-benzodiazol-2-yl)-4-[(2-methoxyethyl)carbamoyl]-[1,1′-biphenyl]-2-carboxylic acid]		< 0.01 µM
COc1cc2[nH]c(-c3cccc(Cl)c3-c3ccc(C(=O)NCCc4ccccc4)cc3C(=O)O)nc2cc1F [Example 112, (S)-2′-chloro-6′-(5-fluoro-6-methoxy-1H-1,3-benzodiazol-2-yl)-4-[(2-phenylethyl)carbamoyl]-[1,1′-biphenyl]-2-carboxylic acid]	< 0.01 µM	< 0.01 µM
COc1cc2[nH]c(-c3cccc(Cl)c3-c3ccc(C(=O)N4CCc5ccccc5C4)cc3C(=O)O)nc2cc1F [Example 113, (S)-2′-chloro-6′-(5-fluoro-6-methoxy-1H-1,3-benzodiazol-2-yl)-4-(1,2,3,4-tetrahydroisoquinoline-2-carbonyl)-[1,1′-biphenyl]-2-carboxylic acid]	< 0.01 µM	< 0.01 µM
COc1cc2[nH]c(-c3cccc(Cl)c3-c3ccc(C(=O)NCCC(C)C)cc3C(=O)O)nc2cc1F [Example 114, (S)-2′-chloro-6′-(5-fluoro-6-methoxy-1H-1,3-benzodiazol-2-yl)-4-[(3-methylbutyl)carbamoyl]-[1,1′-biphenyl]-2-carboxylic acid]	< 0.01 µM	< 0.01 µM
COc1ccc(CNC(=O)c2ccc(-c3c(Cl)cccc3-c3nc4cc(F)c(OC)cc4[nH]3)c(C(=O)O)c2)cc1 [Example 115, (S)-2′-chloro-6′-(5-fluoro-6-methoxy-1H-1,3-benzodiazol-2-yl)-4-{[(4-methoxyphenyl)methyl]carbamoyl}-[1,1′-biphenyl}-2-carboxylic acid]		0.01 to 0.1 µM
COC(=O)CCNC(=O)c1ccc(-c2c(Cl)cccc2-c2nc3cc(F)c(OC)cc3[nH]2)c(C(=O)O)c1 [Example 116, (S)-2′-chloro-6′-(5-fluoro-6-methoxy-1H-1,3-benzodiazol-2-yl)-4-[(3-methoxy-3-oxopropyl)carbamoyl]-[1,1′-biphenyl]-2-carboxylic acid]		0.01 to 0.1 µM
COc1cc2[nH]c(-c3cccc(Cl)c3-c3ccc(C(=O)NCC(c4ccccc4)c4ccccc4)cc3C(=O)O)nc2cc1F [Example 117, (S)-2′-chloro-4-[(2,2-diphenylethyl)carbamoyl]-6′-(5-fluoro-6-methoxy-1H-1,3-2-benzodiazol-2-yl)-[1,1′-biphenyl]-2-carboxylic acid]	0.01 to 0.1 µM	0.01 to 0.1 µM
COc1cc2[nH]c(-c3cccc(Cl)c3-c3ccc(C(=O)N4CCN(C)CC4)cc3C(=O)O)nc2cc1F [Example 118, (S)-2′-chloro-6′-(5-fluoro-6-methoxy-1H-1,3-benzodiazol-2-yl)-4-(4-methylpiperazine-1-carbonyl)-[1,1′-biphenyl]-2-carboxylic acid]	0.01 to 0.1 µM	0.01 to 0.1 µM

Source: patent US11498903B2 (BRISTOL-MYERS SQUIBB COMPANY, priority 2017, dated 2022)
